Laboratory results taken from the NIST ThermoML archive (doi:10.1021/acs.jced.5b00978).

Key:
[1] = for vapor or sublimation pressure: Closed cell (Static) method; for Normal melting temperature: DTA
[2] = Molar enthalpy of transition or fusion; conditions: Crystal; DSC

COC(=O)c1ccc(C#N)cc1 [methyl p-cyanobenzoate]
[1]
Conditions | vapor or sublimation pressure [kPa]
303.93 K, Crystal | 0.00066
306.95 K, Crystal | 0.00092
309.92 K, Crystal | 0.0013
312.93 K, Crystal | 0.00183
315.91 K, Crystal | 0.00252
318.88 K, Crystal | 0.00347
321.94 K, Crystal | 0.00479
324.93 K, Crystal | 0.00649
327.89 K, Crystal | 0.00872
330.89 K, Crystal | 0.01165
333.86 K, Crystal | 0.01562
336.84 K, Crystal | 0.02058
339.83 K, Liquid | 0.02686
342.81 K, Liquid | 0.0331
345.8 K, Liquid | 0.04054
348.76 K, Liquid | 0.04932
351.75 K, Liquid | 0.06007
354.72 K, Liquid | 0.07314
357.79 K, Liquid | 0.08912
360.66 K, Liquid | 0.1059
363.64 K, Liquid | 0.1276
366.47 K, Liquid | 0.1508
369.42 K, Liquid | 0.1793
372.4 K, Liquid | 0.2131
375.39 K, Liquid | 0.2508
378.3 K, Liquid | 0.2957
381.25 K, Liquid | 0.3487
384.19 K, Liquid | 0.4061
387.18 K, Liquid | 0.4767
390.14 K, Liquid | 0.5554
393.05 K, Liquid | 0.644

Conditions | Normal melting temperature [°C]
[1], Crystal | 65.1

Conditions | Molar enthalpy of transition or fusion [kcal/mol]
[2] | 5.21

COC(=O)c1ccc([N+](=O)[O-])cc1 [methyl p-nitrobenzoate]
[1]
Conditions | vapor or sublimation pressure [kPa]
319.01 K, Crystal | 0.00074
321.07 K, Crystal | 0.00092
322.98 K, Crystal | 0.00115
325.03 K, Crystal | 0.00144
326.97 K, Crystal | 0.00177
328.99 K, Crystal | 0.0022
330.91 K, Crystal | 0.00265
332.94 K, Crystal | 0.00333
334.86 K, Crystal | 0.00404
336.9 K, Crystal | 0.00497
338.83 K, Crystal | 0.00597
340.86 K, Crystal | 0.00734
342.77 K, Crystal | 0.00878
344.81 K, Crystal | 0.01073
346.71 K, Crystal | 0.01286
348.76 K, Crystal | 0.01564
350.59 K, Crystal | 0.01843
352.71 K, Crystal | 0.02255
354.57 K, Crystal | 0.02656
356.66 K, Crystal | 0.03213
358.51 K, Crystal | 0.03767
360.47 K, Metastable liquid | 0.05433
360.61 K, Crystal | 0.04542
362.46 K, Metastable liquid | 0.0615
362.47 K, Crystal | 0.05331
364.43 K, Metastable liquid | 0.06971
364.55 K, Crystal | 0.06362
370.48 K, Liquid | 0.1019
372.46 K, Liquid | 0.1149
374.39 K, Liquid | 0.1281
376.4 K, Liquid | 0.1446
378.37 K, Liquid | 0.1615
380.36 K, Liquid | 0.1809
382.3 K, Liquid | 0.2008
384.27 K, Liquid | 0.2241
386.24 K, Liquid | 0.2502
388.24 K, Liquid | 0.2792
390.19 K, Liquid | 0.3091
392.19 K, Liquid | 0.3449
394.11 K, Liquid | 0.3796
396.19 K, Liquid | 0.4248
398.07 K, Liquid | 0.4655
400.05 K, Liquid | 0.5141
401.96 K, Liquid | 0.5665
403.96 K, Liquid | 0.6244
405.95 K, Liquid | 0.6894
407.87 K, Liquid | 0.7541
409.86 K, Liquid | 0.8302
411.81 K, Liquid | 0.9078
413.78 K, Liquid | 0.9952
415.75 K, Liquid | 1.088

Conditions | Normal melting temperature [°C]
[1], Crystal | 96.2

Conditions | Molar enthalpy of transition or fusion [kcal/mol]
[2] | 5.83
